pIC50: −log10 of the molar value. Like-named read-outs stand apart in the source and are kept apart here.
Legend:
[1] = target: Focal Adhesion Kinase (FAK) (Homo sapiens, UniProt Q05397); experiment: FAK assay system (Focal Adhesion Kinase inhibition); format: biochemical; settings: read-out: FAK IC50
[2] = tested on: Mouse mammary carcinoma 4T1 cells; experiment: Anchorage-independent tumor cell growth assay; format: cell-based
Protocol: Cells are cultured for 2 h and inhibitors are added at various concentrations in a final concentration of 0.1% DMSO. After 48 h, cell growth is assayed with the cell counting kit-8 (Wako Pure Chemical), which uses a water soluble tetrazolium salt WST8. Twenty μL of the reagent is added into each well and cells are further cultured for 2 h. The optical density is measured at 450 nm.

[3] = target: FAK (Mus musculus, UniProt P34152); experiment: Phos IC50 (phosphorylation); format: cell-based
Sequence of FAK (P34152 2-1052): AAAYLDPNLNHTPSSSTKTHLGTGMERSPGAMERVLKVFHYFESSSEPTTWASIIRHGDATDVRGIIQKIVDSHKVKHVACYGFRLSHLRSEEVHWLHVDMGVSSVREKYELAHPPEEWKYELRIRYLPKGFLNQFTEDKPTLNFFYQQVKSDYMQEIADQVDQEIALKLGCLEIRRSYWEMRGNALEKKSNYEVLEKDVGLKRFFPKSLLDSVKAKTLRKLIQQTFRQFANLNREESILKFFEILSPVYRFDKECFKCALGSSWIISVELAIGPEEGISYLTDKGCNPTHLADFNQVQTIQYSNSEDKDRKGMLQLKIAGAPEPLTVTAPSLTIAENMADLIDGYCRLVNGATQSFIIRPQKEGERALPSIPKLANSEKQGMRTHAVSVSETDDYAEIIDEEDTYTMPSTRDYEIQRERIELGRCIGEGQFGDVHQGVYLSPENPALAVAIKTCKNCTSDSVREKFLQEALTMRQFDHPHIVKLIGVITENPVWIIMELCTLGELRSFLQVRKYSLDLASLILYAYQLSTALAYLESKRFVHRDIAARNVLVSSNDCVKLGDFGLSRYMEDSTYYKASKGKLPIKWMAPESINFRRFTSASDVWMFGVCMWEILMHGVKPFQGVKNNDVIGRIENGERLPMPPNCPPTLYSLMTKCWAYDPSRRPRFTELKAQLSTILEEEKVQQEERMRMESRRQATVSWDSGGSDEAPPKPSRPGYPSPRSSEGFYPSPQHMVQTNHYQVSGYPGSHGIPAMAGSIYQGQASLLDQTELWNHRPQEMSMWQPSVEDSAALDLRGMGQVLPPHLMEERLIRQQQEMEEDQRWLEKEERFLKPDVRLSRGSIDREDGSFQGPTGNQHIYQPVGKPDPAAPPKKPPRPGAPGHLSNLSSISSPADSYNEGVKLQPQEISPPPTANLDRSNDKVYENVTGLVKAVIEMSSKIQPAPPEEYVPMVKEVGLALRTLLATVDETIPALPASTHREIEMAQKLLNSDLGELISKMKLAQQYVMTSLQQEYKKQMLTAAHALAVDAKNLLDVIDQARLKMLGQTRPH

Sequence of Focal Adhesion Kinase (FAK) (Q05397 384-706): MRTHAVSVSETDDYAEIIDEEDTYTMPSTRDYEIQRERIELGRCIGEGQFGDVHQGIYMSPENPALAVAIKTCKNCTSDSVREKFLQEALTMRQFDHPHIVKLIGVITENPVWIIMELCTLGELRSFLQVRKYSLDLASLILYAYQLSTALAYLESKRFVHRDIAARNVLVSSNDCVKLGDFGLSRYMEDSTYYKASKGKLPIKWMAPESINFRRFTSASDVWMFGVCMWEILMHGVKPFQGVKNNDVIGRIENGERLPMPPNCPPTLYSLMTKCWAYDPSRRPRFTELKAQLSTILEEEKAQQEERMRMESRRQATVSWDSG

SMILES | pIC50 [1] | pIC50 ([2]; Mus musculus, 4T1) | pIC50 [3] | pIC50 [2]
CCC(C)NS(=O)(=O)c1ccccc1Nc1nc(Nc2ccc(F)cc2OC)ncc1Cl (stereo not drawn) [Example 21-2] | 8.07 | < 5.00 | 6.48 | –
CNC(=O)c1ccccc1Nc1nc(Nc2ccc(F)cc2OC)ncc1Br [Example 8-4] | 8.10 | 5.96 | < 5.00 | –
CNS(=O)(=O)c1ccccc1Nc1nc(Nc2cccc3c2CCCC3)ncc1Br [Example 3-31] | 7.89 | 5.30 | 5.96 | –
COCC1CCN(c2ccc(Nc3ncc(Cl)c(Nc4ccccc4S(=O)(=O)C(C)C)n3)c(OC)c2)CC1 [Example 28-10] | 7.70 | – | 5.52 | 5.73
CNS(=O)(=O)c1ccccc1Nc1nc(Nc2cc(OC)ccc2OCCO)ncc1Br [Example 3-60] | 7.05 | 5.70 | 6.03 | –
CCNC(=O)c1ccccc1Nc1nc(Nc2cc(N3CCC(N4CCCCC4)CC3)ccc2OC)ncc1Cl [Example 9-7] | 7.77 | 6.59 | < 5.00 | –
CCCS(=O)(=O)c1ccccc1Nc1nc(Nc2ccc(C(=O)N3CCN(C(C)=O)CC3)cc2OC)ncc1Cl [Example 26-19] | 8.04 | 6.10 | 6.37 | –
CNS(=O)(=O)c1ccccc1Nc1nc(Nc2cc(OC)ccc2OCCOC)ncc1Br [Example 3-59] | 7.02 | < 5.00 | 5.92 | –
CNC(=O)c1cc(OC)ccc1Nc1nc(Nc2ccc(F)cc2OC)ncc1Cl [Example 16-3] | 7.68 | < 5.00 | 5.52 | –
CNS(=O)(=O)c1ccccc1Nc1nc(Nc2ccc(C)cc2F)ncc1Br [Example 3-4] | 7.49 | 5.70 | 6.28 | –
CCS(=O)(=O)c1ccccc1Nc1nc(Nc2ccc(N3CCC(N4CCOCC4)CC3)cc2OC)ncc1Cl [Example 27-4] | 7.96 | 6.57 | 7.00 | –
COc1cc(CN2CCN(C)CC2)ccc1Nc1ncc(Cl)c(Nc2ccccc2S(=O)(=O)C2CC2)n1 [Example 30-5] | 8.07 | 6.54 | 5.70 | –
CCS(=O)(=O)c1ccccc1Nc1nc(Nc2ccc(N3CCN(C(C)=O)CC3)cc2OC)ncc1Cl [Example 27-5] | 8.09 | 6.52 | 7.40 | –
CCC[S+]([O-])c1ccccc1Nc1nc(Nc2ccc(F)cc2OC)ncc1Cl (stereo not drawn) [Example 34-7] | 7.57 | 5.57 | < 5.00 | –
CNC(=O)c1ccccc1Nc1nc(Nc2cccc3[nH]ccc23)ncc1Cl [Example 7-27] | 7.68 | 6.66 | 6.30 | –
CNS(=O)(=O)c1ccccc1Nc1nc(Nc2ccc(N3CCCC(C(N)=O)C3)cc2OC)ncc1Cl (stereo not drawn) [Example 20-15] | 7.85 | – | 6.40 | 6.01
CCNC(=O)c1ccccc1Nc1nc(Nc2ccc(N3CCN(C)CC3)cc2OC)ncc1Cl [Example 9-2] | 7.82 | 6.09 | 6.30 | –
CNS(=O)(=O)c1ccccc1Nc1nc(Nc2ccc(OC3CCN(C(C)=O)CC3)cc2OC)ncc1Br [Example 3-74] | 7.82 | 6.82 | 7.00 | –
CNC(=O)c1cc(N2CCOCC2)ccc1Nc1nc(Nc2ccc(F)cc2OC)ncc1Cl [Example 16-1] | 7.36 | 5.40 | < 5.00 | –
CNS(=O)(=O)c1ccccc1Nc1nc(Nc2cc(N3CCOCC3)ccc2C)ncc1Br [Example 3-20] | 7.80 | 6.52 | 6.66 | –
CCCCc1ccccc1Nc1ncc(Br)c(Nc2ccccc2S(=O)(=O)NC)n1 [Example 3-10] | 7.28 | < 5.00 | 6.02 | –
COc1cc(N2CCC(OC)C2)ccc1Nc1ncc(Cl)c(Nc2ccccc2S(=O)(=O)C(C)C)n1 (stereo not drawn) [Example 28-17] | 7.82 | 5.72 | 6.80 | –
CNC(=O)c1cc(N2CCC(N3CCCCC3)CC2)ccc1Nc1nc(Nc2ccc(F)cc2OC)ncc1Cl [Example 16-4] | 8.02 | 6.04 | < 5.00 | –
CNS(=O)(=O)c1ccccc1Nc1nc(Nc2cc(C(=O)NC3CCCCC3)ccc2C)ncc1Br [Example 3-23] | 7.42 | 6.30 | 6.41 | –
CNC(=O)c1cc(N2CCOCC2)ccc1Nc1nc(Nc2ccc(N3CCN(C(C)=O)CC3)cc2OC)ncc1Cl [Example 18-1] | 7.72 | 5.89 | < 5.00 | –
COc1cc(N2CCN(C(C)=O)CC2)ccc1Nc1ncc(Cl)c(Nc2ccccc2S(=O)(=O)C2CC2)n1 [Example 30-2] | 7.92 | 6.33 | 6.70 | –
COc1cc(F)ccc1Nc1ncc(Cl)c(Nc2ccccc2S(=O)(=O)NCC(C)C)n1 [Example 22-2] | 7.59 | 5.52 | 6.00 | –

These reach a higher pIC50 [1]. Values come first.

pIC50 [1] | pIC50 ([2]; Mus musculus, 4T1) | pIC50 [3] | pIC50 [2] | SMILES
8.85 | 6.51 | 6.70 | – | COc1cc(NC2CCN(C)CC2)ccc1Nc1ncc(Cl)c(Nc2ccccc2S(=O)(=O)NC(C)C)n1 [Example 19-32]
8.46 | 6.89 | 7.70 | – | CNS(=O)(=O)c1ccccc1Nc1nc(Nc2ccc(OCCCN3CCOCC3)cc2OC)ncc1Br [Example 3-70]
> 9.00 | 6.59 | 6.51 | – | CCCS(=O)(=O)c1ccccc1Nc1nc(Nc2ccc(N3CCC(N4CCCC4)CC3)cc2OC)ncc1Cl [Example 26-29]
8.43 | 6.72 | 6.70 | – | CCCS(=O)(=O)c1ccccc1Nc1nc(Nc2ccc(N3CCC[C@H](C(N)=O)C3)cc2OC)ncc1Cl [Example 26-12]
8.47 | 6.29 | 6.92 | – | COc1cc(NCC(C)(C)CO)ccc1Nc1ncc(Cl)c(Nc2ccccc2S(=O)(=O)NC(C)C)n1 [Example 19-22]
8.17 | 6.31 | 6.52 | – | CCC(CC)NS(=O)(=O)c1ccccc1Nc1nc(Nc2ccc(OCCN3CCOCC3)cc2OC)ncc1Cl [Example 23-8]
8.89 | – | 5.22 | 5.93 | CCCS(=O)(=O)c1ccccc1Nc1nc(Nc2ccc(OCCN3CCCC3=O)cc2OC)ncc1Cl [Example 26-18]
8.89 | 6.64 | 7.00 | – | CNC1CCN(c2ccc(Nc3ncc(Cl)c(Nc4ccccc4S(=O)(=O)C(C)C)n3)c(OC)c2)C1 (stereo not drawn) [Example 28-21]
8.25 | 6.00 | 7.00 | – | CCC(CC)S(=O)(=O)c1ccccc1Nc1nc(Nc2ccc(N3CCN(C(C)=O)CC3)cc2OC)ncc1Cl [Example 29-3]
8.54 | 6.74 | 8.00 | – | CCCS(=O)(=O)c1ccccc1Nc1nc(Nc2ccc(N3CCN(C(=O)CC)CC3)cc2OC)ncc1Cl [Example 26-8]
8.64 | 6.96 | 6.05 | – | COc1cc(OC)c(OC)cc1Nc1ncc(Cl)c(Nc2ccccc2S(=O)(=O)C(C)C)n1 [Example 28-30]
> 9.00 | – | 6.22 | 6.14 | CCCS(=O)(=O)c1ccccc1Nc1nc(Nc2ccc(N3CCC(NC)C3)cc2OC)ncc1Cl (stereo not drawn) [Example 26-25]
8.21 | 6.64 | 6.15 | – | CNC(=O)c1cc(N2CCN(C)CC2)ccc1Nc1nc(Nc2cccc3c2ccn3C)ncc1Cl [Example 35-2]
8.37 | 5.49 | < 5.00 | – | CNC(=O)c1cc(F)ccc1Nc1nc(Nc2ccc(N3CCN(C(C)=O)CC3)cc2OC)ncc1Cl [Example 11-4]
8.72 | 6.23 | < 5.00 | – | CCC(CC)NS(=O)(=O)c1ccccc1Nc1nc(Nc2ccc(OCC3CCCN(C)C3)cc2OC)ncc1Cl (stereo not drawn) [Example 23-5]
8.74 | 6.42 | 6.40 | – | COc1cc(N2CCN3CCOC[C@H]3C2)ccc1Nc1ncc(Cl)c(Nc2ccccc2S(=O)(=O)NC(C)C)n1 [Example 19-31]
8.82 | 6.40 | 6.52 | – | COc1cc(N2CCC(N3CCCCC3)CC2)ccc1Nc1ncc(Cl)c(Nc2ccccc2S(=O)(=O)NC(C)C)n1 [Example 19-27]
9.00 | 7.22 | 7.00 | – | CNS(=O)(=O)c1ccccc1Nc1nc(Nc2ccc(N3CCNCC3)cc2OC)ncc1Br [Example 3-47]
9.00 | 6.51 | 7.10 | – | CCS(=O)(=O)c1ccccc1Nc1nc(Nc2ccc(N3CCCC(C(N)=O)C3)cc2OC)ncc1Cl (stereo not drawn) [Example 27-6]
8.34 | 6.43 | 6.40 | – | COc1cc(N2CCC(N3CCCCC3)CC2)ccc1Nc1ncc(Cl)c(Nc2ccccc2S(=O)(=O)C(C)C)n1 [Example 28-8]
8.32 | – | 6.22 | 5.83 | CCCS(=O)(=O)c1ccccc1Nc1nc(Nc2ccc(N3CCC(CO)CC3)cc2OC)ncc1Cl [Example 26-27]
8.38 | – | 6.30 | 6.20 | COc1cc(N2CCN(C(C)=O)CC2)ccc1Nc1ncc(Cl)c(Nc2ccccc2S(=O)(=O)C(C)C)n1 [Example 28-11]
8.22 | 6.22 | < 5.00 | – | CNC(=O)c1cc(N2CCN(C)CC2)ccc1Nc1nc(Nc2ccc(F)cc2OC)ncc1Cl [Example 16-2]
9.05 | 7.70 | 7.70 | – | CNS(=O)(=O)c1ccccc1Nc1nc(Nc2cccc3c2ccn3CCCN2CCOCC2)ncc1Br [Example 3-45]
8.12 | 5.85 | 6.70 | – | COc1cc(N2CCOCC2)ccc1Nc1ncc(Cl)c(Nc2ccccc2S(=O)(=O)N2CCOCC2)n1 [Example 14-7]
8.19 | 6.38 | 6.70 | – | CNC(=O)c1ccccc1Nc1nc(Nc2ccc(N3CCN4CCOC[C@@H]4C3)cc2OC)ncc1Cl [Example 7-16]
